Experimental data: patent US11311523B2, “Pyridinone compound and use thereof” (KYUSHU UNIVERSITY, NATIONAL UNIVERSITY CORPORATION, priority 2015, dated 2022)

Columns and labels:
[1] = biological target: T1, DHR-2 domain of DOCK1 (Homo sapiens, UniProt Q14185); test: in vitro GEF assay (Bodipy-FL-GTP loading of Rac); assay type: biochemical
T1 construct: Polypeptide fragments that correspond to the DHR-2 domain of DOCK1, DOCK2, or DOCK5; Histidine-SUMO (N); made in house; host or cells: E. coli Arctic express (DE3)
T1 sequence (Q14185 1207-1617 limits assumed): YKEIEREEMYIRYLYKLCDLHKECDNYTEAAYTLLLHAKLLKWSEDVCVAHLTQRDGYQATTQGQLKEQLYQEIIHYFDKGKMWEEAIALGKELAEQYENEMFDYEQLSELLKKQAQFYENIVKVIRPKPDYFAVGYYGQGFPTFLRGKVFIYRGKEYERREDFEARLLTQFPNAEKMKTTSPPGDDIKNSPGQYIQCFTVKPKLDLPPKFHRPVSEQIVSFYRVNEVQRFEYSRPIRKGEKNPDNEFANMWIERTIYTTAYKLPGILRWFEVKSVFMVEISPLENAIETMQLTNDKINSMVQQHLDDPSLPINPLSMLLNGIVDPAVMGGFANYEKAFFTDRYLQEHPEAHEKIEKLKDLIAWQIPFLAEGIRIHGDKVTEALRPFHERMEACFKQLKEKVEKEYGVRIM
From the text: (§1) Pharmacological Test 1 (In Vitro GEF Assay)
(§2) DOCK1, DOCK2, and DOCK5, which are DOCK-A subfamily members, catalyze the GTP-GDP exchange reaction for Rac via the DHR-2 domain to activate Rac.
(§3) The in vitro GEF assay referred to in this specification used a labeled GTP (Bodipy-FL-GTP, Invitrogen), whose fluorescence intensity increases when bound to Rac.
(§4) Polypeptide fragments that correspond to the DHR-2 domain of DOCK1, DOCK2, or DOCK5 were expressed in E. coli Arctic express (DE3) cells as N-terminal Histidine-SUMO tag-fused recombinant proteins and purified by affinity column chromatography on nickel-NTA columns.
(§5) Rac was expressed in E. coli BL21 (DE3) cells as an N-terminal GST tag-fused recombinant protein and purified by affinity column chromatography on glutathione-Sepharose columns.
(§6) Subsequently, a reaction solution A containing 20 mM of MES-NaOH, 150 mM of NaCl, 10 mM of MgCl2, and 20 μM of GDP, and having an adjusted pH of 7.0 was incubated at room temperature for 30 minutes while being protected from light in the presence of each of the polypeptide fragments (DHR-2 domains) prepared above and each pyridinone compound or CPYPP dissolved at a predetermined concentration in DMSO or DMSO alone (control) to thus prepare GEF pretreated products. In all of the samples, the final DMSO concentration was adjusted to 3%.
(§7) Thereafter, 15 μM of Rac prepared above was added to the reaction solution A and directly allowed to stand on ice for 30 minutes to form a GDP-Rac complex.
(§8) Bodipy-FL-GTP was added to 100 μL of the reaction solution A containing the thus prepared GDP-Rac complex to a concentration of 3.6 μM, followed by equilibration at 30° C. for 2 minutes. After equilibration, 50 μL of the pretreated GEF was added for reaction at 30° C.
(§9) Changes in fluorescence intensity of Bodipy-FL-GTP were monitored during the reaction using an XS-N (Molecular Devices) or an Enspire spectrofluorometer (Perkin Elmer) (excitation wavelength: 488 nm, emission wavelength: 514 nm). The measured values were corrected so that the fluorescence intensity at the time that the reaction was initiated (0 seconds) was 0.
(§10) Then, an approximate curve (hyperbola) was obtained by plotting the calculated correction values on the y axis and the time (t) on the x axis using GraphPad Prism5 (GraphPad software), and the slope at t=0 to 10 seconds was considered to be an initial velocity of guanine nucleotide exchange reaction. The IC50 value was calculated taking the initial reaction velocity of the control, to which only a solvent (DMSO) was added, as 100%.

[2] = biological target: T2, DHR-2 domain of DOCK2 (Homo sapiens, UniProt Q92608); test: in vitro GEF assay (Bodipy-FL-GTP loading of Rac); assay type: biochemical; conditions: FIG. 11
T2 construct: Polypeptide fragments that correspond to the DHR-2 domain of DOCK1, DOCK2, or DOCK5; Histidine-SUMO (N); made in house; host or cells: E. coli Arctic express (DE3)
T2 sequence (Q92608 1211-1622 limits assumed): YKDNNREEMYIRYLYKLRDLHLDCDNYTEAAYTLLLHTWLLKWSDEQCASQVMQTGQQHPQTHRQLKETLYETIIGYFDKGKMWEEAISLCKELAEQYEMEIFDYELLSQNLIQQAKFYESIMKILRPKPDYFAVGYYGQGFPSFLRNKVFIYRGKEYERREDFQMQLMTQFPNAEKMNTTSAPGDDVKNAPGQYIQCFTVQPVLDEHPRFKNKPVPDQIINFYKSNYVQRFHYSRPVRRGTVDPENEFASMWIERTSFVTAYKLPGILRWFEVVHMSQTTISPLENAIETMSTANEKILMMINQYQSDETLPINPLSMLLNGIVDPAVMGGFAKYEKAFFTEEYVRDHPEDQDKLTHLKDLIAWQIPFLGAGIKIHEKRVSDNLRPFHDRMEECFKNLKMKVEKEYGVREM
From the text: as §1, §2, §3, §4, §5, §6, §7, §8, §9, §10

[3] = biological target: T3, DHR-2 domain of DOCK5 (Homo sapiens, UniProt Q9H7D0); test: in vitro GEF assay (Bodipy-FL-GTP loading of Rac); assay type: biochemical; conditions: FIG. 11
T3 construct: Polypeptide fragments that correspond to the DHR-2 domain of DOCK1, DOCK2, or DOCK5; Histidine-SUMO (N); made in house; host or cells: E. coli Arctic express (DE3)
T3 sequence (Q9H7D0 1231-1642 limits assumed): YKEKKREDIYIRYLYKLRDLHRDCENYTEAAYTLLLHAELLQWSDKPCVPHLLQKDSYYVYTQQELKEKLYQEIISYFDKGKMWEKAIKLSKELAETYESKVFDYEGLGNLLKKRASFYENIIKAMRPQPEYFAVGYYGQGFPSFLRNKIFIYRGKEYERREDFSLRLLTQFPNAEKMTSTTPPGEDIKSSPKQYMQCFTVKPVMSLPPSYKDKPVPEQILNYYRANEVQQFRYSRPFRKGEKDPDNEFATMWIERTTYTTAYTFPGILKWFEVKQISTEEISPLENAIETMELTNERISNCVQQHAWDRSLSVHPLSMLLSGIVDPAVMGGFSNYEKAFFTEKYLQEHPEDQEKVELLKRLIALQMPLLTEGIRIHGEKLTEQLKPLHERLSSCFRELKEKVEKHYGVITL
From the text: as §1, §2, §3, §4, §5, §6, §7, §8, §9, §10

[4] = tested on: primary mouse embryonic fibroblasts (MEFs); test: inhibition of ruffle formation after PDGF stimulation; assay type: cell-based; conditions: 1 hour pretreatment
From the text: Pharmacological Test 4 (Experiment on Inhibition of Ruffle Formation in Primary Mouse Embryonic Fibroblasts)
As disclosed in NPL 2, stimulation of primary mouse embryonic fibroblasts (MEFs) with a growth factor, such as PDGF, induces actin cytoskeletal remodeling, leading to the formation of two types of characteristic cellular membrane structures, peripheral ruffles and dorsal ruffles.
The peripheral ruffle and dorsal ruffle formation depends on Rac activation and requires the functions of DOCK1 and DOCK5. Importantly, it is known that the peripheral ruffle formation requires the functions of both DOCK1 and DOCK5 while the dorsal ruffle formation requires the function of DOCK1.
Therefore, the use of various pyridinone compounds in this assay system enables cell-level verification of DOCK1 selectivity.
Wild-type MEFs or MEFs from DOCK1-deficient (D1KO) mouse (obtained by the method disclosed in NPL 2) were suspended in DMEM (with 10% FBS) to a concentration of 2×10^4 cells/mL, and 150 μL of the resulting product was seeded on the glass portion of fibronectin-coated glass-bottom culture dishes.
After 36-hour culture at 37° C., the medium was changed to DMEM (serum free) containing 0.1% BSA, and 12-hour culture was performed to allow the cells to be serum-starved. Subsequently, the medium was changed to 100 μL of DMEM (serum free) containing DMSO in which each pyridinone compound or CPYPP was dissolved at a predetermined concentration, followed by pretreatment for 1 hour. A control was prepared using a culture medium to which DMSO was added alone. In all of the experiments, the final concentration of DMSO was adjusted to 0.2%.
Thereafter, 100 μL of DMEM that was warmed beforehand to 37° C. (serum free, containing 60 ng/mL of PDGF) was added to the above pretreated cells to stimulate the cells, followed by incubation at 37° C. for 7 minutes and further incubation at room temperature for 10 minutes in 150 μL of 4% paraformaldehyde solution to fix the cells. Then, PBS (containing 0.2% Triton X-100) was added to the fixed cells, and a 5-min incubation at room temperature was performed to permeabilize the cellular membranes. Thereafter, the cells were blocked with BSA, and the actin cytoskeleton was stained with Alexa Fluor 546-labeled phalloidin. Using a Zeiss LSM510 meta confocal laser scanning microscope, the number of cells in which peripheral ruffles and dorsal ruffles were formed was observed and counted.

[5] = tested on: mouse lung carcinoma cell line (3LL); test: cellular invasion inhibition assay (Matrigel chamber); assay type: cell-based; conditions: 3LL cells, 22 hours, compared to DMSO
Experimental: Pharmacological Test 2 (Cellular Invasion Inhibition Assay)
Three hundred microliters of a suspension of a mouse lung carcinoma cell line (3LL), a human fibrosarcoma cell line (HT-1080), or a human colon cancer cell line (DLD-1) in DMEM (serum free) was placed in the upper chamber with Matrigel (BD Biosciences) equilibrated with DMEM (serum free) for 120 minutes, while 500 μL of DMEM (with 10% FCS) was placed in the lower chamber. Each pyridinone compound or CPYPP dissolved at a predetermined concentration in DMSO was added to the culture media in both the upper and lower chambers. As a control, DMSO alone was added to the media. In all of the experiments, the final DMSO concentration was adjusted to 0.2%.
After the resulting products were cultured at 37° C. under 5% CO2 for 22 hours, the chambers were removed, and the culture media were removed. […] After staining, the inserts were cut out with a blade to prepare slides, and the cells were counted under an optical microscope.
The results were evaluated based on percent cell invasion (%: Invasion) and percent inhibition (%: inhibition). The percent cell invasion was obtained by converting the number of invading cells under each condition to percentage, taking the number of invading cells in the control, to which DMSO was added alone, as 100%; and the percent inhibition was obtained by deducting the percent cell invasion from 100.

| Structure (SMILES) | IC50 ([1]; FIG. 11) [µM] | selectivity of GEF inhibition to DOCK1 versus DOCK2 and DOCK5 ([1]; from IC50 values for DOCK1, DOCK2, DOCK5) | IC50 [2] [µM] | IC50 [3] [µM] | dorsal ruffle formation [4] | peripheral ruffle formation [4] | inhibition of cancer cell (3LL) invasion [5] |
| --- | --- | --- | --- | --- | --- | --- | --- |
| O=C1NN(c2ccccc2)C(=O)C1=CC=Cc1ccccc1Cl [CPYPP, reference compound] | 20 | no selectivity | 39 | 14.8 | inhibited both peripheral ruffle formation and dorsal ruffle formation | inhibited both peripheral ruffle formation and dorsal ruffle formation | – |
| Cc1cc(C(=O)Cn2cc(S(=O)(=O)N3CCCC3)ccc2=O)c(C)n1Cc1ccc(F)cc1 [Compound T-070444, 1-(2-(1-(4-fluorobenzyl)-2,5-dimethyl-1H-pyrrol-3-yl)-2-oxoethyl)-5-(pyrrolidin-1-ylsulfonyl)pyridin-2(1H)-one] | – | – | – | – | significantly inhibited | occurred in a similar manner to that of the control | – |
| O=C(Cn1cc(S(=O)(=O)N2CCCC2)ccc1=O)c1ccc(-c2ccc(C(F)(F)F)cc2)cc1 [TS-16, 1-(2-oxo-2-(4′-(trifluoromethyl)-[1,1′-biphenyl]-4-yl)ethyl)-5-(pyrrolidin-1-ylsulfonyl)pyridin-2(1H)-one] | – | – | – | – | – | – | significantly excellent inhibitory effect |
